Consider ten compounds from PMC9899896, “Application of a new approach methodology (NAM)-based strategy for genotoxicity assessment of data-poor compounds” (Frontiers in Toxicology, 2023).

Each structure is given as a SMILES string. Like-named read-outs stand apart in the source and are kept apart here.

Data set [1] relates to human lymphoblastoid TK6 cells. Kind of data set: TGx-DDI transcriptomic biomarker classification (TempO-Seq S1500+) and BMC modeling. The conditions noted are these: for TGx-DDI summary classification: TK6 cells, 4H exposure; for Strength / consistency of TGx-DDI response (text): across concentrations and the three statistical analyses; for TGx-DDI classification: overall call from 2-DC, PCA, NSC-PA, S9 condition as in Figure 1; for TGx-DDI BMC potency ranking (bootstrapped median gene BMC): BMR 1 standard deviation, compounds with concordant positive calls.

In data set [2] the test system is human lymphoblastoid TK6 cells. Kind of data set: Integrated NAM-based test strategy (TGx-DDI + MicroFlow + MultiFlow; ToxPi integration of BMCs). The conditions noted are these: for Integrated hazard conclusion: from TGx-DDI, MicroFlow and MultiFlow calls; for ToxPi profile of multiplexed endpoint BMCs: six endpoints: TGx-DDI, MN, 4H/24H p53, 4H/24H ɣH2AX.
Data set [3] has as its system human lymphoblastoid TK6 cells. Kind of data set: MultiFlow DNA Damage assay (γH2AX, p53, p-H3, polyploidy). The conditions noted are these: for MultiFlow summary classification (call and MoA): TK6 cells, 4H and 24H sampling; for MultiFlow MoA classification: GEF-based call, in at least one S9 condition; for MultiFlow biomarkers with responses: fold-increase over solvent control. The data set is classed as cell-based. How it is done:
Treated cells were gently resuspended and 25 µL/well was mixed thoroughly with the labeling solution. The plate was incubated for 30 min at room temperature shielded from light.
The γH2AX and p53 endpoints were measured based on their median fluorescence intensity (i.e., mean channel fluorescence or MCF) relative to the DMSO solvent control. The p-H3 and polyploidy endpoints were measured based on their frequencies among all events (i.e., all 2n–4n and polyploidy (8n) DNA content). The equations for calculating γH2AX shift, nuclear p53 shift, % polyploidy, and % p-H3 positive events are shown below.
Latex microspheres were used as counting beads to determine nuclear density.
Litron developed Global Evaluation Factors (GEF) to identify a biologically significant increase in select biomarker levels.
A clastogenic or aneugenic call required two successive concentrations that met or exceeded the GEFs in at least 2 of the 4 respective MoA biomarkers. Chemicals that met or exceeded two GEFs in a single non-cytotoxic concentration were designated as “weak” responses. In cases where both clastogen and aneugen biomarkers exceeded the GEF the MoA was considered pan-genotoxic. In cases where less than two biomarkers met the GEFs, the call was non-genotoxic.

In data set [4] the test system is human lymphoblastoid TK6 cells. The data set can be described thus: In vitro MicroFlow assay (flow cytometry-based micronucleus test). Particulars: for MicroFlow summary classification (MN induction): TK6 cells, 4H exposure, 24-h sampling; for MicroFlow %MN response (text): positive: >2.5 fold-increase in %MN and p < 0.05 vs vehicle. A general note: A flow cytometer gives signals particle by particle.

In data set [5] the test system is human lymphoblastoid TK6 cells. Kind of data set: Viability assessment (propidium iodide fluorescence, flow cytometry). Particulars: TK6 cells, ± S9, quantified at 24 h via propidium iodide.
For data set [6], the system named is structural chromosomal aberrations. The conditions noted are these: cited from earlier work; for In vitro mammalian chromosomal aberration test result (OECD 473): SCCS.
Another data set relates to MN. Particulars: cited from earlier work.
The mark [7] stands for this setting: +S9 (rat liver S9), 3 h recovery.

`CCN(CC)c1cccc(O)c1` [NSACB 4, 3-diethylaminophenol]: the TGx-DDI summary classification entry in data set [1] (setting [7]) is “+”. For the same compound, in data set [1], the “Strength / consistency of TGx-DDI response (text)” value (from here on “Strength / consistency”) was “weaker DDI responses” and the “TGx-DDI classification” value is “DDI”. In addition, the Integrated hazard conclusion entry in data set [2] is given as “genotoxic in vitro, causing DNA damage via a clastogenic MoA”. Also, the “MultiFlow summary classification (call and MoA)” value (“MultiFlow summary classification” for short) in data set [3] (+S9) is recorded as “+ C/A”. In data set [3] (-S9), the “MultiFlow summary classification” value was “+ C”. For the same compound, in data set [3], the “MultiFlow MoA classification” value is given as “pan-genotoxicant”; the “MultiFlow biomarkers with responses” value was “clastogen biomarkers 4H p53 and 4H ɣH2AX, as well as aneugen marker 4H p-H3 and pan-genotoxic biomarker 24H p53”.
As to `OC[C@@H](O)[C@@H](O)[C@H](O)[C@H](O)CO` [DMANN, D-mannitol, reference compound], the “MicroFlow summary classification (MN induction)” value (shortened to “MicroFlow summary classification”) in data set [4] (-S9) was “-”. Further, in data set [4], the “MicroFlow %MN response (text)” value is “not observed”. Moreover, the TGx-DDI summary classification entry in data set [1] (setting [7]) and in data set [1] (-S9) was “-” throughout. Further, the “TGx-DDI classification” value in data set [1] is recorded as “non-DDI”. The “Effect on cell viability” value in data set [5] was “no decrease in viability”. Also, the “MultiFlow summary classification” value in data set [3] (+S9) and in data set [3] (-S9) was “-” throughout.
As for `O=[N+]([O-])c1cc(O)ccc1NCCCO` [NSACB 9, 4-[(3-hydroxypropyl)amino]-3-nitrophenol], the “MicroFlow summary classification” value in data set [4] (+S9) and in data set [4] (-S9) was “+” throughout. The “MicroFlow %MN response (text)” value in data set [4] is recorded as “robust fold-increase in %MN with a clear concentration-response relationship”. Also, the TGx-DDI summary classification result in data set [1] (setting [7]) and in data set [1] (-S9) was “+” in each case. The “Strength / consistency” value in data set [1] was “moderate DDI response”. Besides, the Integrated hazard conclusion entry in data set [2] was “genotoxic in vitro, causing DNA damage via a clastogenic MoA”. Besides, the “Chromosomal aberration test result” value in data set [6] (in the presence of S9, ref SCCP, 2007) is “induced structural chromosomal aberrations”; in data set [6] (without S9, ref SCCP, 2007) it was “equivocal”. Also, the “In vitro mammalian chromosomal aberration test result (OECD 473)” value in data set [6] (ref SCCP, 2007, 2013) is “positive”. Moreover, the “MultiFlow summary classification” value in data set [3] (+S9) and in data set [3] (-S9) was “+ C” throughout. Moreover, in data set [3], the “MultiFlow MoA classification” value was “clastogens”. Further, in data set [3], the “MultiFlow biomarkers with responses” value was 4H and 24H ɣH2AX. For the same compound, the “Strength of MultiFlow biomarker response (text)” value is “most robust increases” in data set [3] (listed as 9); “strong fold-increases in clastogenic biomarkers (i.e., 4H and 24H ɣH2AX) in both S9 conditions” in data set [3] (listed as NSACB #9).
Regarding `COc1cc([N+](=O)[O-])ccc1O` [NSACB 6, 2-methoxy-4-nitrophenol], the “MicroFlow summary classification” value in data set [4] (+S9) and in data set [4] (-S9) was “+” each time. The “MicroFlow %MN response (text)” value in data set [4] was “robust fold-increase in %MN with a clear concentration-response relationship”. Moreover, the TGx-DDI summary classification result in data set [1] (setting [7]) is “-”. In addition, the “TGx-DDI classification” value in data set [1] was “non-DDI”. Moreover, the Integrated hazard conclusion entry in data set [2] is “likely irrelevant positives in the MN test”. Further, the “MultiFlow summary classification” value in data set [3] (+S9) and in data set [3] (-S9) was “-” each time. The “MultiFlow MoA classification” value in data set [3] is listed as “non-genotoxic”. Also, the “MultiFlow biomarkers with responses” value in data set [3] is “moderate to robust response increase in one of the aneugenic biomarkers (i.e., 4H p-H3)”.
Turning to `CCCOCC(C)OCC(C)O` (stereo not drawn) [NSACB 10, 1-(1-methyl-2-propoxyethoxy)-2-propanol], the “Effect on cell viability” value in data set [5] is reported as “did not impact viability up to the highest concentration of 10 mM”. For the same compound, the Integrated hazard conclusion entry in data set [2] is recorded as “likely irrelevant positives in the MN test”.
Turning to `COc1cc([C@@H]2c3cc4c(cc3[C@@H](O[C@@H]3O[C@@H]5CO[C@@H](C)O[C@H]5[C@H](O)[C@H]3O)[C@H]3COC(=O)[C@H]23)OCO4)cc(OC)c1O` [EPEG, Etoposide, reference compound], the “MicroFlow summary classification” value in data set [4] (+S9) and in data set [4] (-S9) was “+” throughout. The “MicroFlow %MN response (text)” value in data set [4] is reported as “significant fold-increases in %MN”. In addition, in data set [1] (-S9), the TGx-DDI summary classification entry is listed as “+”. The “TGx-DDI BMC potency ranking (bootstrapped median gene BMC)” value in data set [1] is reported as “lowest median gene BMC”. Besides, the “TGx-DDI classification” value in data set [1] is given as “DDI”. Besides, in data set [2], the “ToxPi profile of multiplexed endpoint BMCs” value is reported as “most potent for five of the six endpoints examined”. For the same compound, the “MultiFlow summary classification” value in data set [3] (+S9) and in data set [3] (-S9) was “+ C” each time.
As for `Cc1cc(C)n(CO)n1` [NSACB 3, 3,5-dimethylpyrazole-1-methanol], in data set [4] (+S9), the “MicroFlow summary classification” value was “+”. The “MicroFlow summary classification” value in data set [4] (-S9) was “+”. In addition, the “MicroFlow %MN response (text)” value in data set [4] was “variable responses with a significant increase observed only at the highest concentration”. Moreover, the TGx-DDI summary classification entry in data set [1] (setting [7]) is “+”. Also, in data set [1], the “Strength / consistency” value is recorded as “weaker DDI responses” and the “TGx-DDI classification” value is on record as “DDI”. The Integrated hazard conclusion entry in data set [2] was “genotoxic in vitro, causing DNA damage via a clastogenic MoA”. Also, in data set [3], the “Strength of MultiFlow biomarker response (text)” value is “more moderate responses”; the “MultiFlow MoA classification” value is recorded as “clastogens”; the “MultiFlow biomarkers with responses” value was 4H p53 and 4H ɣH2AX. Further, the “MultiFlow summary classification” value in data set [3] (+S9) is given as “+ C”. In data set [3] (-S9), the “MultiFlow summary classification” value is “+ C”.
As for `Nc1cccc(N)n1` [NSACB 5, 2,6-diaminopyridine], in data set [4] (+S9), the “MicroFlow summary classification” value was “+”. Moreover, the “MicroFlow summary classification” value in data set [4] (-S9) is listed as “+”. The “MicroFlow %MN response (text)” value in data set [4] is recorded as “robust fold-increase in %MN with a clear concentration-response relationship”. The TGx-DDI summary classification result in data set [1] (setting [7]) was “+”. In data set [1], the “TGx-DDI BMC potency ranking (bootstrapped median gene BMC)” value was “greatest median gene BMC”, the “Strength / consistency” value is “strongest responses” and the “TGx-DDI classification” value is recorded as “DDI across all concentrations”. In data set [2], the Integrated hazard conclusion result is reported as “genotoxic in vitro, causing DNA damage via a clastogenic MoA” and the “ToxPi profile of multiplexed endpoint BMCs” value was “almost no slices protruding from the center”. For the same compound, the “Chromosomal aberration test result” value in data set [6] (continuous treatment (24H) without S9, ref SCCS, 2013) is reported as “clastogenic”. In addition, in data set [6] (ref SCCP, 2007, 2013), the “In vitro mammalian chromosomal aberration test result (OECD 473)” value is listed as “positive”. Besides, in data set [6] (short-term (6H) treatment with S9, ref SCCS, 2013), the “Chromosomal aberration test result” value was “clastogenic”. In data set [3] (+S9), the “MultiFlow summary classification” value is “+ C”. Also, the “MultiFlow summary classification” value in data set [3] (-S9) is reported as “+ C”. In data set [3], the “MultiFlow MoA classification” value is “clastogens”; the “MultiFlow biomarkers with responses” value is 4H p53 and 4H ɣH2AX. For the same compound, the “Strength of MultiFlow biomarker response (text)” value in data set [3] (listed as 5) is listed as “most robust increases”. The “Strength of MultiFlow biomarker response (text)” value in data set [3] (listed as NSACB #5) is “strong response in clastogen-related biomarkers in both S9 conditions”.
Take `C/C=C(/C)C(=O)O[C@H]1C(C)=C2[C@H]([C@@H]1OC(=O)CCCCCCC)[C@@](C)(OC(C)=O)C[C@H](OC(=O)CCC)[C@@]1(O)[C@H]2OC(=O)[C@@]1(C)O` [thapsigargin]: the “MicroFlow MN result” value with MN was “induce MN”.
Turning to `Cc1ccc(O)c(N)c1` [NSACB 2, 2-amino-4-methylphenol], the “MicroFlow summary classification” value in data set [4] (+S9) was “+”. Moreover, the “MicroFlow summary classification” value in data set [4] (-S9) was “+”. In addition, the “MicroFlow %MN response (text)” value in data set [4] is recorded as “variable responses with a significant increase observed only at the highest concentration”. In data set [1] (setting [7]), the TGx-DDI summary classification result is recorded as “+”. In data set [1], the “Strength / consistency” value is “weaker DDI responses” and the “TGx-DDI classification” value was “DDI”. In data set [2], the Integrated hazard conclusion entry is given as “genotoxic in vitro, causing DNA damage via a clastogenic MoA”. In data set [3], the “Strength of MultiFlow biomarker response (text)” value is “most robust increases”; the “MultiFlow MoA classification” value is given as “clastogens”; the “MultiFlow biomarkers with responses” value was 4H ɣH2AX and 24H p53. Moreover, in data set [3] (+S9), the “MultiFlow summary classification” value was “+ C”. Also, the “MultiFlow summary classification” value in data set [3] (-S9) was “-”.
